The subject of assay [1] is RBL-2H3. Put plainly: Inhibition of DNP-HAS-stimulated mast cell degranulation in rat RBL-2H3 cells assessed as reduction in beta-hexosaminidase release at 1 uM incubated for 3 hrs. The class given is functional, cell-based.
In assay [2] the test system is RBL-2H3. Put plainly: Inhibition of DNP-HAS-stimulated mast cell degranulation in rat RBL-2H3 cells assessed as induction of ASM activation at 0.1 uM. The class given is functional, cell-based.
For assay [3], the system named is RBL-2H3. Briefly: Inhibition of DNP-HAS-stimulated mast cell degranulation in rat RBL-2H3 cells assessed as reduction in beta-hexosaminidase release at 0.01 to 1 uM. The class given is functional, cell-based. The conditions noted are these: dose 0.01-1 µM.
For assay [4], the system named is RBL-2H3. Put plainly: Inhibition of DNP-HAS-stimulated mast cell degranulation in rat RBL-2H3 cells assessed as reduction in beta-hexosaminidase release at 0.1 uM. The class given is functional, cell-based.
The test system of assay [5] is RBL-2H3. Briefly: Inhibition of DNP-HAS-stimulated mast cell degranulation in rat RBL-2H3 cells assessed as reduction in beta-hexosaminidase release at 0.5 uM. The class given is functional, cell-based.
Assay [6] deals with RBL-2H3. Briefly: Inhibition of mast cell degranulation in rat RBL-2H3 cells assessed as reduction in beta-hexosaminidase release pre-treated with 5 uM ASM-specific inhibitor desipramine for 3 hrs followed by compound treatment at 25 uM for 3 hrs. The class given is functional, cell-based.
For assay [7], the system named is RBL-2H3. Put plainly: Inhibition of mast cell degranulation in rat RBL-2H3 cells assessed as induction of ASM activation at 1 to 25 uM incubated for 3 hrs measured by TLC analyses. The conditions noted are these: dose 1-25 µM. The class given is functional, cell-based.
Assay [8] concerns RBL-2H3. Briefly: Inhibition of DNP-HAS-stimulated mast cell degranulation in rat RBL-2H3 cells assessed as reduction in beta-hexosaminidase release at 1 to 25 uM incubated for 3 hrs followed by DNP-HAS stimulation for 1 hr. The class given is functional, cell-based. The conditions noted are these: dose 1-25 µM.
In assay [9] the test system is RBL-2H3. Put plainly: Inhibition of mast cell degranulation in rat RBL-2H3 cells assessed as induction of ASM activation pre-treated with anti-67LR antibody for 3 hrs followed by compound treatment at 25 uM for 3 hrs. The class given is functional, cell-based.
In assay [10] the test system is RBL-2H3. Briefly: Inhibition of DNP-HAS-stimulated mast cell degranulation in rat RBL-2H3 cells assessed as induction of ASM activation at 0.5 uM in presence of 0.1 uM eriodictyol. The class given is functional, cell-based.
For assay [11], the system named is RBL-2H3. Briefly: Inhibition of DNP-HAS-stimulated mast cell degranulation in rat RBL-2H3 cells assessed as induction of ASM activation at 0.5 uM. The class given is functional, cell-based.
In assay [12] the test system is RBL-2H3. Briefly: Inhibition of DNP-HAS-stimulated mast cell degranulation in rat RBL-2H3 cells assessed as reduction in beta-hexosaminidase release pre-treated with 5 uM sGC inhibitor NS2028 for 1 hr followed by compound treatment at 25 uM for 3 hrs. The class given is functional, cell-based.
Assay [13] concerns RBL-2H3. Put plainly: Inhibition of DNP-HAS-stimulated mast cell degranulation in rat RBL-2H3 cells assessed as reduction in beta-hexosaminidase release at 0.5 uM in presence of 0.1 uM eriodictyol. The class given is functional, cell-based.
The subject of a further assay is Mus musculus. Briefly: Inhibition of IgE/Ag-mediated immediate hypersensitivity reaction in BALB/c mouse assessed as change in the level of skin extravasation at 0 to 4 mg/kg, po administered 1 hr prior to Ag challenge. The conditions noted are these: dose 0-4 mg/kg. The class given is functional, organism-based.

Molecules are shown by their SMILES. Activity calls are given as the source filed them. No cut-off for these calls is given here.

With `Nc1nc(-c2nn(Cc3ccccc3F)c3ncccc23)ncc1C1CC1`, the inhibition entry in the assay with RBL-2H3 [1] is “Active”.
Take `O=C1C[C@@H](c2ccc(O)c(O)c2)Oc2cc(O)cc(O)c21`: the inhibition entry in the assay on RBL-2H3 [2], in the assay with RBL-2H3 [3] and in the assay with RBL-2H3 [4] was “inactive” throughout.
`COc1cc(C(=O)O[C@@H]2Cc3c(O)cc(O)cc3O[C@@H]2c2cc(O)c(O)c(O)c2)cc(O)c1O`: the inhibition entry in the assay on RBL-2H3 [5], with RBL-2H3 [6], in the assay with RBL-2H3 [9], with RBL-2H3 [11] and in the assay on RBL-2H3 [12] was “inactive” each time. The inhibition result in the assay with RBL-2H3 [7], in the assay on RBL-2H3 [8], in the assay with RBL-2H3 [10] and in the assay on RBL-2H3 [13] was “Active” each time.
`O=C1C[C@@H](c2ccc(O)c(O)c2)Oc2cc(O[C@@H]3O[C@H](CO)[C@@H](O)[C@H](O)[C@H]3O)cc(O)c21`: the inhibition result in the assay on Mus musculus was “inactive”.

For the origin of these results see ChEMBL document CHEMBL5033999, “Eriodictyol-Amplified 67-kDa Laminin Receptor Signaling Potentiates the Antiallergic Effect of O-Methylated Catechin” (J Nat Prod, 2021).
